{"source": "patent US8039505B2", "about": "“Compounds for modulating T-cells” (University of Utah Research Foundation, priority 2007, dated 2011)", "key": {"[1]": {"system": "HEK293 human kidney cell line", "assay": "Cell viability, kidney cell line", "format": "cell-based", "protocol": "Experiments described in this document are carried out in zebrafish embryos (cell cycle experiments) and lck-GFP transgenic larvae (5 to 8 days after fertilization), and in human cell lines (Jurkat is a human T cell leukemia, RS4; 11 is a human B cell leukemia and HEK293 is a human kidney cell line).\nCell culture experiments: Cells were incubated at 37° C. in 75 mL flasks in RPMI containing 10% FBS, 5 mL Penicillin/Streptomycin (100×) in a total volume of […]. Cells were counted using a hemocytometer, and 25,000 cells were plated in each well of a 96-well plate. Compounds and controls were added and cells were harvested after a 48 hr incubation period.\nTo assess effects of compounds, cell viability was measured. For this, cells were incubated with MTT [3-(4,5-[…])-2,5 diphenyl Tetrazolium Bromid], a compound that is transformed into a formazan crystal by mitochondrial dehydrogenases. After crystal solubilization with DMSO a blue color (that is proportional to the amount of crystal formed) can be measured. Formazan solution absorbs light at 550-570 nm but not at 620-650 nm. 620-650 nm absorbency results from cell debris and well imperfections. Final optical density (OD) obtained from formazan formation was calculated OD=L1-L2 (background).\nNext, the nine compounds were tested for activity against the human T-ALL line: Jurkat and the human B-ALL line RS 4; 11. […]"}, "[2]": {"assay": "14-day twice daily gavage in healthy CD-1 male mice", "format": "in vivo", "conditions": "gavage 50, 15 and 5 mg/kg twice per day, 14 days", "protocol": "Healthy CD-1 male mice were also gavage-fed with compound 3 at concentrations of 50 mg/kg, 15 mg/kg and 5 mg/kg twice per day. […] Hematological, biochemical, immunological and pathological specimen are currently being evaluated."}}, "data": [{"smiles": "C(=NNc1cccc2cccnc12)c1c[nH]c2ccccc12", "note": "[Compound C3, 1H-indole-3-carbaldehyde quinolin-8-ylhydrazone]", "values": [{"measurement": "Effect on kidney cell line (viability)", "setting": "[1]", "value": "neither the kidney cell line, nor the B-ALL were affected"}, {"measurement": "Adverse effects", "setting": "[2]", "value": "No adverse effects were observed"}]}]}
